Experiments:
[1] = tested on: tobacco aphid, Myrzus Nicotiana Blackman; test: Spray bioassay against tobacco aphids; assay type: in vivo; conditions: individual SE groups; 1 mg SE/ml aqueous spray solution; after 24 hours; average of number of tests
Description: (§1) Bioassays of the total SE reaction products as well as of the individual groups of SE were conducted using the tobacco aphid, Myrzus Nicotiana Blackman, the greenhouse whitefly, Trialeurodes vaporariorum Westwood, and the sweetpotato whitefly, Bemisia tabaci Gennadius. Aqueous dispersions of sugar ester fractions, obtained from the column chromatographic step or the total reaction SE products were tested generally at a concentration of 1 mg/ml of water. To prepare the sprayable aqueous mixtures, a small amount of methanol (approximately about 20 μl per 10 mg of dried test compound) is added to the dried test compound. This is agitated gently. Then acetone is added to the methanol mixture to yield a concentration of approximately about 0.05 g/ml. This is shaken gently. To obtain a final, sprayable concentration of approximately about 1 mg sucrose ester/ml, about 10 ml of water are added to the mixture. This is then placed into an ultrasonic bath for 20 minutes. The resulting solution is ready to spray. Green-house reared apterous (wingless) aphids, that colonized a green tobacco plant, were removed with a leaf, sprayed, and kept in a closed petri dish. Percent mortality was determined after 24 hours. In a similar manner, bioassays against the green house whitefly or sweetpotato whitefly are conducted by spraying sucrose ester dispersions at 1 mg/ml of water onto whiteflies, trapped on a sticky surface, and determining percent mortality after 2-24 hours. Tables II and III below show the percent mortality of aphids treated by the individual sucrose ester groups and the total SE reaction products.

[2] = tested on: greenhouse whitefly, Trialeurodes vaporariorum Westwood; test: Spray bioassay against the greenhouse whitefly; assay type: in vivo; conditions: group 2 SE, 1.0 mg/ml spray solution, after 24 hours, average of number of tests
Description: as §1

Compound | % Mortality [1] [%] | % Mortality [2] [%] | mortality at 1000 µg/mL ([2]; Trialeurodes vaporariorum) [%]
monododecanoyl sucrose | 47 | – | –
tridodecanoyl sucrose | 15 | – | –
triheptanoyl sucrose | 16 | – | –
monooctanoyl sucrose | 11 | – | –
didodecanoyl sucrose | 23 | 100 | –
monoheptanoyl sucrose | 17 | – | –
CCCCCCCC(=O)OCC1OC(OC2(COC(=O)CCCCCCC)OC(COC(=O)CCCCCCC)C(O)C2O)C(O)C(O)C1O (single isomer, unassigned) [trioctanoyl sucrose] | 27 | – | –
dihexanoyl sucrose | – | 77 | –
diheptanoyl sucrose | 88 | 100 | –
monononanoyl sucrose | 16 | – | –
tridecanoyl sucrose | 15 | – | –
tridnanoyl sucrose | 13 | – | –
CCCCCCCC(=O)OCC1OC(OC2(CO)OC(COC(=O)CCCCCCC)C(O)C2O)C(O)C(O)C1O (single isomer, unassigned) [dioctanoyl sucrose] | 88 | – | 100
didecanoyl sucrose | 43 | 100 | –
monodecanoyl sucrose | 47 | – | –
dinonanoyl sucrose | 64 | 87 | –

Source: patent US6605598B1, “Chemically synthesized sugar esters for the control of soft-bodied arthropods” (The United States of America as represented by the …, priority 1994, dated 2003)
